Reference: patent US7741283B2, “Compositions and methods for inhibiting cell proliferation” (St. Louis University, priority 2003, dated 2010)

What was measured:
[1] = tested on: Mv1Lu cells; test: Cell growth (cell number), Mv1Lu cells; type: cell-based, mink; conditions: IGFBP-3 0.5 μg/ml, 4-day
Description: (§1) FIG. 6 depicts the effects of IGFBP-3 and TGF-β1 on DNA synthesis (A), cell growth (B) and PAI-1 expression (C) in Mv1Lu and PEA-C11 cells. (A,B) Cells were incubated with various concentrations of IGFBP-3 (a) or TGF-β1 (b) as indicated. DNA synthesis and cell growth were determined by measuring the [methyl-^3H] thymidine incorporation into cellular DNA after 18 hr incubation (A) and by counting cell number after a 4-day incubation (B), respectively. The [methyl-^3H] thymidine incorporation in cells treated without IGFBP-3 and TGF-β1 (29,170±1,657 and 59,947±7,692 cpm/well for Mv1Lu and PEA-C11 cells, respectively) were taken as 0% inhibition. […] Each data point is the mean±S.D. of quadruplicate determinations. […] Data are representative of eight similar experiments. (C) Cells were incubated with various concentrations of TGF-β1 as indicated. After 2 hr at 37° C., the PAI-1 expression was determined by Northern blot analysis. The expression of glyceraldehyde-3-phosphate dehydrogenase (G3PDH) was used as control. The relative levels of the transcripts were quantified by a Phospholmager. Data are representative of four similar experiments.
(§2) Cells were plated at a density of 1-2×10^4 cells/dish in DMEM containing 1% fetal calf serum. The cell number was counted every day or after a 3-day incubation using a hematocytometer. The assays were performed in quadruplicate.

[2] = tested on: H1299/LRP cells; test: [methyl-3H] thymidine incorporation, H1299/LRP cells; type: cell-based, human; conditions: various concentrations
[3] = tested on: IRS-2; test: Determination of tyrosine phosphorylation of IRS-2, Mv1Lu cells; type: cell-based, mink
Description: FIG. 15 depicts tyrosine phosphorylation of IRS-2 in Mv1Lu cells treated with IGFBP-3 and insulin. Cells were stimulated with or without insulin (10 nM) for 10 min and then treated with or without IGFBP-3 (1 μg/ml) for 1 hr (A). On the other hand, cells pretreated with or without IGFBP-3 (1 μg/ml) for 2 hr and then stimulated with insulin (10 nM) for 10 min (B, lane 1 and lane 2, respectively). In a parallel experiment, cells were treated with insulin (10 nM) in the presence and absence of IGFBP-3 (1 μg/ml) for 2 hr (B, lane 3 and lane 4, respectively). […] The arrow indicates the location of tyrosine-phosphorylated IRS-2.
Mv1Lu cells were plated on 30-mm dishes at a cell density of 4×10^4/cm^2 in DMEM containing 10% fetal calf serum. The cells in serum-free DMEM were pre-treated with IGFBP-3 (1 μg/ml) for 1 or 2 hr and then treated with insulin (10 nM) for 10 min or treated with insulin (10 nM) for 10 min and then treated with IGFBP-3 (1 μg/ml) for a further 2 hr, or treated simultaneously with insulin (10 nM) and IGFBP-3 (1 μg/ml) for 2 hr. The experiments were carried out at 37° C. The cell lysates were subjected to immunoprecipitation using anti-IRS-2 IgG followed by 7.5% SDS-PAGE and Western blot analysis using anti-phosphotryosine IgG and the ECL system (Santa Cruz).

[4] = tested on: H1299/LRP cells; test: Cell growth (cell number), H1299/LRP cells; type: cell-based, human; conditions: TGF-β1 20 pM or IGFBP-3 1 μg/ml, 3-day
[5] = tested on: R1B cells; conditions: IGFBP-3 0.5 μg/ml; cited from earlier work
[6] = tested on: H1299/vector cells; test: Cell growth (cell number), H1299/vector cells; type: cell-based, human; conditions: TGF-β1 20 pM or IGFBP-3 1 μg/ml, 3-day
[7] = tested on: 32D/IRS-1 cells; test: [methyl-3H] thymidine incorporation, 32D/IRS-1 cells; type: cell-based, murine; conditions: 32D cells expressing IRS-1
[8] = tested on: PEA-C11 cells; test: Cell growth (cell number), PEA-C11 cells; type: cell-based, mink; conditions: IGFBP-3 0.5 μg/ml, PEA-C11, 4-day
Description: as §1, §2

[9] = tested on: PEA-C11 cells; test: [methyl-3H] thymidine incorporation, PEA-C11 cells; type: cell-based, mink; conditions: IGFBP-3 0.5 μg/ml
[10] = tested on: IRS-2; test: 32P metabolic labeling and immunoprecipitation of IRS-2, MB102-16 cells; type: cell-based, mink; conditions: MB102-16 cells (αIβI); IGFBP-3 1 μg/ml, GM-CSF 1 nM
[11] = target: acidic pH binding sites (Neogale vison, UniProt A0A8C7BSJ2); test: Specific binding of 125I-ligands to Mv1Lu cells at acidic pH; set-up: species or system mink; conditions: Mv1Lu cells; EGTA/BAPTA- or GST-RAP-sensitive binding, 0° C.
Sequence of acidic pH binding sites (A0A8C7BSJ2 entry or part of it): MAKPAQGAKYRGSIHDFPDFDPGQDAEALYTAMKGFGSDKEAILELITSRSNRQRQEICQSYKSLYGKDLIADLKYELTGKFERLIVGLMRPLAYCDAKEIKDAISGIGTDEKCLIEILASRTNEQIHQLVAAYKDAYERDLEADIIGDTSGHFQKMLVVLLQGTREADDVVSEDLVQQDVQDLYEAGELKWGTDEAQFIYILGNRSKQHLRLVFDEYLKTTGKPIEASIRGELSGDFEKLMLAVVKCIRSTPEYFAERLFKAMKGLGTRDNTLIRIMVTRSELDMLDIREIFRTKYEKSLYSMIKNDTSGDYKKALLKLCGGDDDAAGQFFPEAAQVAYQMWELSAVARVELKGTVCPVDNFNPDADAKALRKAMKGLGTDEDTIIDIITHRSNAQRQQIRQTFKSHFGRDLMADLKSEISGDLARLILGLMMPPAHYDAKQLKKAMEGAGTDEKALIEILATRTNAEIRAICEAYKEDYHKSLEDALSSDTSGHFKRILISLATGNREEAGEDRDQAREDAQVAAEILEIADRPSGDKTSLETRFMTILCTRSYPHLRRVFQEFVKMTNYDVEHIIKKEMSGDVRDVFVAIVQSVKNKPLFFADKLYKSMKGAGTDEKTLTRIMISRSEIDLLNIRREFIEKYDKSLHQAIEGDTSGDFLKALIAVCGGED

pH of optimal/maximal binding [11]: 5
Substance: IGFBP-3: human insulin-like growth factor binding protein-3 expressed in E. Coli
Inhibition of cell growth [1]: ~70%
Effect on DNA synthesis [2]: inhibited
Effect on insulin-stimulated tyrosine phosphorylation of IRS-2 ([3]; IGFBP-3 pretreatment 2 hr, then insulin 10 nM 10 min): diminished
Effect on insulin-stimulated tyrosine phosphorylation of IRS-2 ([3]; insulin 10 nM 10 min, then IGFBP-3 1 μg/ml 1 hr): failed to affect
Effect on insulin-stimulated tyrosine phosphorylation of IRS-2 ([3]; simultaneous insulin 10 nM and IGFBP-3 1 μg/ml, 2 hr): enhancement
Effect on cell growth [4]: inhibited
Inhibition of DNA synthesis [5]: 30-50%
Effect on cell growth [6]: acted as mitogens or growth stimulators
Growth inhibitory response (DNA synthesis) [7]: potent growth inhibitory response
Inhibition of cell growth [8]: ~45%
Inhibition of DNA synthesis [9]: ~10%
Specific dephosphorylation (mobility change) of IRS-2 [10]: induced specific dephosphorylation
